Laboratory results: patent US9193740B2, “Bismacrocyclic compounds as hepatitis C virus inhibitors” (Enanta Pharmaceuticals, Inc., priority 2009, dated 2015)

System: HCV 1b genotype replicon
Test: Cell-based HCV replicon assay (qRT-PCR or luciferase), genotype 1b
Conditions: Hepatitis C virus
Experimental: Cell-Based Replicon Assay
The anti-HCV activity of the compounds is determined using the cell-based replicon assay and the HCV replication assay described in US Publication No: 2010/0003214, incorporated herein by reference in its entirety.
HCV Replicon Assay—Luciferase
Since clinical drug resistance often develops in viral infections following single agent therapies, there is a need to assess the additive, antagonistic, or synergistic properties of combination therapies. We use the HCV replicon system to assess the potential use of the compound of the present invention or in combination therapies with Interferon alpha, cyclosporine analogs and inhibitors targeting other HCV proteins. The acute effects of a single or combinations of drugs are studied in the “Huh-luc/neo-ET” replicon with each chemical agent titrated in an X or Y direction in a 6 point two-fold dilution curve centered around the EC50 of each drug. […] Using this method, the combination data are analyzed for antagonistic, additive, or synergistic combination effects across the entire combination surface created by the diluted compounds in combination. […]

SMILES | EC50 [nM]
CC1(C)CC/C=C/C(F)(F)c2nc3ccccc3nc2O[C@@H]2C[C@H]3C(=O)N[C@]4(C(=O)NS(=O)(=O)C5CC5)C[C@H]4/C=C\CCCCC[C@H](NC(=O)OC1)C(=O)N3C2 [Example 8] | < 1
O=C1N[C@H]2CCCCC/C=C\[C@@H]3C[C@@]3(C(=O)NS(=O)(=O)C3CC3)NC(=O)[C@@H]3C[C@H](CN3C2=O)Oc2nc3ccccc3nc2-c2cccc(c2)OCC(F)(F)CO1 [Example 2] | < 1
